US6376488B1, “Benzoxazine α-1 adrenergic compounds” (Abbott Laboratories, priority 2000, dated 2002)
Where a name gives a salt, the structure may show the parent alone.

The compounds below were run against T1, α1d (rat) adrenoreceptor (Rattus norvegicus, UniProt P23944) (assay: [3H]-prazosin radioligand binding, cloned α1d (rat) adrenoreceptor in LTK cells). Settings: cloned receptor in LTK cell membranes, [3H]prazosin 0.2 nM.
T1 sequence (P23944 1-561): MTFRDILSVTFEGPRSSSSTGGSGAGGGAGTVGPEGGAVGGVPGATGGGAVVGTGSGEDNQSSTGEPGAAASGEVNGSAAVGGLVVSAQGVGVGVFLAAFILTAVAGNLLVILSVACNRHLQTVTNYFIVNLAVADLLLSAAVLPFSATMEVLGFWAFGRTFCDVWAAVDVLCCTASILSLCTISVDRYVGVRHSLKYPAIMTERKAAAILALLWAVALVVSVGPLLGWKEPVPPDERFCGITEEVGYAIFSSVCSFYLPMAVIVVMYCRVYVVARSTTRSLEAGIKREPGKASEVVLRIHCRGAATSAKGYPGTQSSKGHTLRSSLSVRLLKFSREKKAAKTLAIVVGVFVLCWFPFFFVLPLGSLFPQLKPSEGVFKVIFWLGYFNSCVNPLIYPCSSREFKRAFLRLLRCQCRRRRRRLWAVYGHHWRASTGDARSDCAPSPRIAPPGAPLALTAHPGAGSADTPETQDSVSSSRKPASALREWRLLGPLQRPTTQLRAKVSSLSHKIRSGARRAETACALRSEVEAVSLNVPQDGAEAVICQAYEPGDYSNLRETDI
Experimental: Representative compounds of the invention were evaluated for α adrenoreceptor binding affinity in vitro using [^3H]-prazosin as the radioligand and following four cloned α1, adrenoreceptors expressed in LTK cells: α1a (rat), α1a (bovine), α1b : (hampster), and α1d (rat).
The cDNA clones encoding the α1, adrenoreceptors were obtained from TULCO (Triangle Universities Licensing Consortium, Research Triangle Park, N.C.) and inserted into the eukaryotic expression vector SnaB30. In this vector, expression of the adrenoreceptor gene is under the transcriptional control of an SV40 early promoter. Positive drug selection is provided by a neomycin-resistance gene. Mouse fibroblast cells (LTK) were transfected with the α1 expression plasmids and grown in Dulbecco's modified Eagle's medium (DMEM) containing 10% fetal calf serum and 30 μM G418. Stable G418-resistant parental lines were generated with successful expression of adrenoreceptor protein monitored using radioligand binding techniques. Stable single cell clones derived from the parental lines were screened in adrenoreceptor binding assays to identify clones having high adrenoreceptor density. Roller bottle cultures of the cloned lines were used to provide cell membranes for subsequent adrenoreceptor binding characterization studies. A cell line containing the SnaB30 vector expressing the human erythropoietin gene served as a negative control.
For adrenoreceptor binding assays, large scale membrane preparations were utilized in which 6 million cells were seeded into small (450 cm^2) Coming tissue culture roller bottles. DMEM (200 mL) containing 10% fetal calf serum and 300 μM G418 were added to each roller bottle. A 95% air/5% CO2 gas mixture (sterile) was injected into each roller bottle prior to sealing, and the bottles were then incubated at 37° C. on a roller rack for 5 days. Cells were refed with fresh medium after 3 days in culture.
On the fifth day of culture, growth medium was removed from cells grown in roller bottles, and the cells were washed twice with PBS (Sigma, 120 mM NaCl, 2.7 mM KCl, 10 mM Na2HPO4-NaH2PO4, pH=7.4). Cells were detached from the roller bottles by incubating for 15 minutes at 37° C. in a Tris-EDTA solution (10 mM Tris, 100 mM NaCl, 1 mM EDTA, pH=7.4). The cell suspension from each roller bottle was decanted into tared centrifuge tubes and kept on ice. An aliquot of each cell suspension was generally taken for cell counting. Cells were centrifuged at 3000×G for 5 minutes at 2-4° C., washed with PBS and recentrifuged. The supernatant was decanted, and the pellet was weighed to determine the wet weight of cells. Cells were washed a final time in 40 vol 5 mM Tris-HCl, 5 mM EDTA, pH=7.7 and centrifuged at 40,000×G for 10 minutes (“vol” indicates volume/weight, e.g., a “vol” of 40 would indicate that the one gram of cells were washed with 40 mls of buffer). Cells were homogenized in of 50 mM Tris-HCl, 5 mM EDTA (pH=7.4) (10 mL) and diluted to 40 mL/tube. Homogenates were centrifuged at 40,000×G for 10 minutes. The supernatant was decanted and the pellets rehomogenized in 50 mM Tris-HCl (pH=7.4) and centrifuged as before. The supernatant was decanted and the homogenate was resuspended in 6.25 volumes (per gram wet weight) of 50 mM Tris-HCl and aliquots of the pooled homogenates frozen in liquid N2 and,stored at −70° C. until the time of assay.
Receptor binding assays for α1 adrenoreceptors were performed essentially as described by Greengrass and Bremner (Eur. J. Pharmacol. 55: 323-326 (1979)). […] Following equilibration, bound radioligand was separated from free on GF/B filters (presoaked in 0.5% polyethyleneimine) using ither a Brandel or Packard cell harvester. Radioactivity was determined by standard liquid scintillation techniques. Data were analyzed as previously described (Hancock, A. A., Kyncl, J. J., Martin, Y. C. and DeBemardis, J. F., J. Receptor Res. 8: 23-46 (1988)). The in Table 1.

Ki [nM] | Compound
1.28 | COc1cccc2c1N1CCN(CCCn3c(=O)[nH]c4c(sc5cccnc54)c3=O)CC1CO2.Cl.Cl.Cl (single isomer, unassigned; (-)) [Example 9, (−) 3-[3-(10-methoxy-1,2,4a,5-tetrahydropyrazino[2,1-c][1,4]benzoxazin-3(4H)-yl)propyl]pyrido[2′,3′:4,5]thieno[3,2-d]pyrimidine-2,4(1H, 3H)-dione trihydrochloride]
2.16 | COc1cccc2c1N1CCN(CCCCn3c(=O)[nH]c4c(sc5cccnc54)c3=O)CC1CO2 (single isomer, unassigned; (+)) [Example 14, (+) 3-[4-(10-methoxy-1,2,4a,5-tetrahydropyrazino[2,1-c][1,4]benzoxazin-3(4H)-yl)butyl]pyido [2′,3′:4,5]thieno[3,2-d]pyrimidine-2,4(1H,3H)-dione trihydrochloride]
5 | Cl.Cl.O=c1[nH]c2c(sc3cccnc32)c(=O)n1CCCCN1CCN2c3ccccc3OCC2C1 (single isomer, unassigned; (+)) [Example 3, (+) 3-[4-(1,2,4a,5-tetrahydropyrazino[2,1-c][1,4]benzoxazin-3(4H)-yl)butyl]pyrido[2′, 3′:4,5]thieno[3,2-d]pyrimidine-2,4(1H,3H)-dione dihydrochloride]
16.9 | Cl.Cl.O=c1[nH]c2c(sc3ncccc32)c(=O)n1CCCCN1CCN2c3ccccc3OCC2C1 (single isomer, unassigned; (-)) [Example 6, (−) 3-[4-(1,2,4a,5-tetrahydropyrazino[2,1-c][1,4]benzoxazin-3(4H)-yl)butyl]pyrido[3′, 2′:4,5]thieno[3,2-d]pyrimidine-2,4(1H,3H)-dione dihydrochloride]
20.5 | COc1cccc2c1N1CCN(CCCn3c(=O)[nH]c4c(sc5cccnc54)c3=O)CC1CO2.Cl.Cl.Cl (single isomer, unassigned; (+)) [Example 17, (+) 3-[3-(10-methoxy-1,2,4a,5-tetrahydropyrazino[2,1-c][1,4]benzoxazin-3(4H)-yl)propyl]pyrido[2′,3′:4,5]thieno[3,2-d]pyrimidine-2,4(1H,3H)-dione trihydrochloride]
5.89 | Cl.Cl.O=c1[nH]c2c(sc3cccnc32)c(=O)n1CCCN1CCN2c3ccccc3OCC2C1 (single isomer, unassigned; (+)) [Example 1, (+) 3-[3-(1,2,4a,5-tetrahydropyrazino[2,1-c][1,4]benzoxazin-3(4H)-yl)propyl]pyrido[2′,3′:4,5]thieno[3,2-d]pyrimidine-2,4(1H,3H)-dione dihydrochloride]
5.08 | COc1cccc2c1N1CCN(CCn3c(=O)[nH]c4c(sc5ncc(Cl)nc54)c3=O)CC1CO2.Cl.Cl (single isomer, unassigned; (+)) [Example 8, (+) 3-[2-(10-methoxy-1,2,4a,5-tetrahydropyrazino[2,1-c][1,4]benzoxazin-3(4H)-yl)ethyl]-8-chloropyrazino[2′,3′:4,5]thieno[3,2-d]pyrimidine-2,4(1H,3H)-dione dihydrochloride]
3.52 | COc1cccc2c1N1CCN(CCn3c(=O)[nH]c4c(sc5ncc(Cl)nc54)c3=O)CC1CO2.Cl.Cl (single isomer, unassigned; (-)) [Example 13, (−) 3-[2-(10-methoxy-1,2,4a,5-tetrahydropyrazino[2,1-c][1,4]benzoxazin-3(4H)-yl)ethyl]-8-chloropyrazino[2′,3′:4,5]thieno[3,2-d]pyrimidine-2,4(1H,3H)-dione dihydrochloride]
2.01 | COc1cccc2c1N1CCN(CCn3c(=O)[nH]c4c(sc5cccnc54)c3=O)CC1CO2.Cl.Cl.Cl (single isomer, unassigned; (+)) [Example 16, (+) 3-[2-(10-methoxy-1,2,4a,5-tetrahydropyrazino[2,1-c][1,4]benzoxazin-3(4H)-yl)ethyl]pyrido[2′,3′:4,5]thieno[3,2-d]pyrimidine-2,4(1H,3H)-dione trihydrochloride]
1.3 | COc1cccc2c1N1CCN(CCCCn3c(=O)[nH]c4c(sc5ncccc54)c3=O)CC1CO2.Cl.Cl.Cl (single isomer, unassigned; (+)) [Example 15, (+) 3-[4-(10-methoxy-1,2,4a,5-tetrahydropyrazino[2,1-c][1,4]benzoxazin-3(4H)-yl)butyl]pyrido[3′,2′:4,5]thieno[3,2-d]pyrimidine-2,4(1H,3H)-dione trihydrochloride]
1.13 | COc1cccc2c1N1CCN(CCn3c(=O)[nH]c4c(sc5cccnc54)c3=O)CC1CO2.Cl.Cl (single isomer, unassigned; (-)) [Example 7, (−) 3-[2-(10methoxy-1,2,4a,5-tetrahydropyrazino[2,1-c][1,4]benzoxazin-3(4H)-yl)ethyl]pyrido[2′,3′:4,5]thieno[3,2-d]pyrimidine-2,4(1H,3H)-dione dihydrochloride]
69.8 | O=c1[nH]c2c(sc3cccnc32)c(=O)n1CCCN1CCN2c3ccccc3OCC2C1 (single isomer, unassigned; (-)) [Example 2, (−) 3-[3-(1,2,4a,5-tetrahydropyrazino[2,1-c][1,4]benzoxazin-3(4H)-yl)propyl]pyrido[2′,3′:4,5]thieno[3,2-d]pyrimidine-2,4(1H,3H)-dione dihydrochloride]
1.15 | COc1cccc2c1N1CCN(CCCCn3c(=O)[nH]c4c(sc5ncc(Cl)nc54)c3=O)CC1CO2.Cl.Cl (single isomer, unassigned; (-)) [Example 12, (−) 3-[4-(10-methoxy-1,2,4a,5-tetrahydropyrazino[2,1-c][1,4]benzoxazin-3(4H)-yl)butyl]-8-chloropyrazino[2′,3′:4,5]thieno[3,2-d]pyrimidine-2,4(1H,3H)-dione dihydrochloride]
19.5 | O=c1[nH]c2c(sc3cccnc32)c(=O)n1CCCCN1CCN2c3ccccc3OCC2C1 (single isomer, unassigned; (-)) [Example 4, (−) 3-[4-(1.2,4a,5-tetrahydropyrazino[2,1-c][1,4benzoxazin-3(4H)-yl)butyl]pyrido[2′,3′:4,5]thieno[3,2-d]pyrimidine-2,4(1H,3H)-dione dihydrochloride]
0.427 | COc1cccc2c1N1CCN(CCCCn3c(=O)[nH]c4c(sc5ncccc54)c3=O)CC1CO2 (single isomer, unassigned; (-)) [Example 11, (−) 3-[4-(10-methoxy-1,2,4a,5-tetrahydropyrazino[2,1-c][1,4]benzoxazin-3(4H)-yl)butyl]pyrido[3′,2′:4.5]thieno[3,2-d]pyrimidine-2,4(1H,3H)-dione trihydrochloride]

Compound | Ki [nM]
(−) 3-[3-(10-methoxy-1,2,4a,5-tetrahydropyrazino[2,1-c][1,4]benzoxazin-3(4H)-yl)butyl]pyrido[2′,3′:4,5]thieno[3,2-d]pyrimidine-2,4(1H,3H)-dione trihydrochloride [Example 10] | 0.344
